One series concerns K562 cells. As to the kind of experiment: Cell Titer Glo 2.0 cell viability (toxicity) assay, K562. The note with it: 500 cells/well, 72 hours.
The subject of the next series is HTT mRNA. Briefly: RT-qPCR splicing assay, HTT mRNA canonical (CJ) and alternative (AJ) junction. It is filed as cell-based, human. The note with it: Homo sapiens; for AC50: HTT alternative junction mRNA, read-out: HTT AJ (increase in AJ mRNA, AC50). An outline of the steps: (§1)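 Splice switching quantified in compound-treated A673/K562 cells after 24 h exposure (top dose 10 uM, 3-fold steps, ≤0.25% DMSO), using CJ and AJ qPCR assays run at least in duplicate. RQ derived by 2^(−ΔΔCt), then percentage response.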
(In general: Real-time PCR tracks product formation cycle by cycle.)

For a further series, the system named is Target C. As to the kind of experiment: HiBiT protein abundance assay, Target C (K562 HiBiT knock-in). The note with it: HiBiT knock-in K562 cells, 24 hours, top dose 10 μM. It is filed as cell-based, human. An outline of the steps:
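K562 HiBiT knock-in cells (10000/well) were treated 24 h at 37° C with a 10-point 3-fold dilution series (top 10 μM final, ≤0.25% DMSO). HiBiT luminescence was read after lytic LgBiT detection. Percent response used unmodified K562 and DMSO-treated knock-in controls, and IC50 came from a four-parameter fit at 50% of untreated.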
(The HiBiT peptide binds its large partner to form an active luciferase.)

The next series has as its system SMN2 mRNA. Briefly: RT-qPCR splicing assay, SMN2 mRNA. The class given is cell-based, human. The note with it: Homo sapiens, canonical junction qPCR panel, Table 4; read-out: SMN2 IC50 (decrease in CJ mRNA levels). An outline of the steps:
as §1

In another series the test system is HTT. As to the kind of experiment: HiBiT protein abundance assay, HTT (K562 HiBiT knock-in). It is filed as cell-based, human. As to conditions: HiBiT knock-in K562 cells, 24 hours, top dose 10 μM. An outline of the steps: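 K562 HiBiT knock-in, 24 h, 37 °C, top 10 μM final, 3-fold ×10, DMSO ≤0.25%. Lytic HiBiT luminescence; PC = parental K562, NC = DMSO; 4PL IC50.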

Where [1] appears, read: HTT canonical junction mRNA, RT-qPCR, read-out: HTT CJ (decrease in CJ mRNA levels, IC50).
[2] abbreviates: canonical junction qPCR panel, Table 4, read-out: HTT IC50 (decrease in CJ mRNA levels).

Molecules are shown by their SMILES. Like-named read-outs stand apart in the source and are kept apart here.

Regarding `Cc1nc2cc(O)c(-c3ccc4nc(N5CC[C@H](NC6(CF)CC6)C5)ccc4n3)cc2o1` (single isomer, unassigned) [Compound 489], the “Effect of Exemplary Compounds on Cell Viability, K562” value (“Effect of Exemplary Compounds” below) in the series on K562 cells is “A (A represents <100 nM)”. In the series on HTT mRNA (RT-qPCR), the concentration at half-maximal activity (AC50) (in general, the concentration at which the activity in the assay is half-maximal) was less than 100 nM. Moreover, the half-inhibitory concentration (IC50) in the series on HTT mRNA (setting [1]), with HTT mRNA (setting [2]), in the series on Target C, in the series on SMN2 mRNA and with HTT was less than 100 nM in each case.

As to `Cc1nc2c(F)c(O)c(-c3ccc4nc(N5CC[C@@H](NC6(CF)CC6)C5)ccc4n3)cc2o1` (single isomer, unassigned) [Compound 491], the “Effect of Exemplary Compounds” value in the series on K562 cells is listed as “A (A represents <100 nM)”. Moreover, the concentration at half-maximal activity (AC50) in the series with HTT mRNA (RT-qPCR) is less than 100 nM. Also, the IC50 with HTT mRNA (setting [1]), in the series with HTT mRNA (setting [2]), in the series with Target C, with SMN2 mRNA and with HTT was less than 100 nM throughout.

For the molecule `Cn1cc2cc(-c3ccc4nc(N5CCC(NC6(CF)CC6)C5)ccc4n3)c(O)c(F)c2n1` (stereo in doubt) [Compound 353, 7-fluoro-5-{6-[(3R)-3-{[1-(fluoromethyl)cyclopropyl]amino}pyrrolidin-1-yl]-1,5-naphthyridin-2-yl}-2-methylindazol-6-ol], in the series with K562 cells, the “Effect of Exemplary Compounds” value is on record as “A (A represents <100 nM)”. In addition, the half-maximal activity concentration (AC50) with HTT mRNA (RT-qPCR) was less than 100 nM. For the same molecule, the IC50 in the series on HTT mRNA (setting [1]), in the series on HTT mRNA (setting [2]), with Target C, in the series on SMN2 mRNA and in the series with HTT was less than 100 nM each time.

As for `Cn1cc2cc(-c3ccc4nc(N5CCC(NC6(CF)CC6)C5)ccc4n3)c(O)c(F)c2n1` (stereo in doubt) [Compound 357, 7-fluoro-5-{6-[(3S)-3-{[1-(fluoromethyl)cyclopropyl]amino}pyrrolidin-1-yl]-1,5-naphthyridin-2-yl}-2-methylindazol-6-ol], the “Effect of Exemplary Compounds” value in the series on K562 cells is given as “A (A represents <100 nM)”. For the same molecule, in the series on HTT mRNA (RT-qPCR), the AC50 is less than 100 nM. In addition, the IC50 in the series with HTT mRNA (setting [1]), in the series with HTT mRNA (setting [2]), in the series with Target C, in the series with SMN2 mRNA and with HTT was less than 100 nM throughout.

As for `Cn1cc2cc(-c3ccc4nc(N5CCC(N)C5)ccc4n3)c(O)c(F)c2n1` (stereo in doubt) [Compound 363, 5-{6-[(3R)-3-aminopyrrolidin-1-yl]-1,5-naphthyridin-2-yl}-7-fluoro-2-methylindazol-6-ol], the “Effect of Exemplary Compounds” value in the series on K562 cells is listed as “A (A represents <100 nM)”. The AC50 in the series on HTT mRNA (RT-qPCR) was less than 100 nM. Further, the 50% inhibitory concentration (IC50) with HTT mRNA (setting [1]), with HTT mRNA (setting [2]), in the series on Target C, in the series with SMN2 mRNA and in the series with HTT was less than 100 nM throughout.

Turning to `Cc1nc2c(F)c(O)c(-c3ccc4nc(N5CC[C@@H](N[C@H]6C[C@@H](F)C6)C5)ccc4n3)cc2o1` (stereo in doubt) [Compound 375], in the series with K562 cells, the “Effect of Exemplary Compounds” value is recorded as “A (A represents <100 nM)”. For the same molecule, the AC50 in the series on HTT mRNA (RT-qPCR) was less than 100 nM. For the same molecule, the IC50 with HTT mRNA (setting [1]), in the series on HTT mRNA (setting [2]), in the series with Target C, with SMN2 mRNA and with HTT was less than 100 nM throughout.

`Cc1nc2c(C)c(O)c(-c3ccc4nc(N5CC[C@@H](N[C@H]6C[C@@H](F)C6)C5)ccc4n3)cc2o1` (stereo in doubt) [Compound 376]: the “Effect of Exemplary Compounds” value in the series on K562 cells is listed as “B (B represents 100-1000 nM)”. In the series on HTT mRNA (RT-qPCR), the AC50 was 100 to 1000 nM. Further, the half-inhibitory concentration (IC50) in the series on HTT mRNA (setting [1]), in the series on HTT mRNA (setting [2]), with Target C, with SMN2 mRNA and in the series on HTT was less than 100 nM in each case.

In the case of `Cc1nc2c(C)c(O)c(-c3ccc4nc(N5CC[C@H](N[C@H]6C[C@@H](F)C6)C5)ccc4n3)cc2o1` (stereo in doubt) [Compound 377], the “Effect of Exemplary Compounds” value in the series with K562 cells is recorded as “B (B represents 100-1000 nM)”. The AC50 in the series on HTT mRNA (RT-qPCR) is less than 100 nM. In addition, the 50% inhibitory concentration (IC50) in the series with HTT mRNA (setting [1]), in the series with HTT mRNA (setting [2]), in the series on Target C, in the series with SMN2 mRNA and in the series with HTT was less than 100 nM each time.

In the case of `Cc1nc2cc(O)c(-c3ccc4nc(N5CC[C@@H](N[C@H]6C[C@@H](F)C6)C5)ccc4n3)cc2o1` (stereo in doubt) [Compound 395], the “Effect of Exemplary Compounds” value in the series on K562 cells is “B (B represents 100-1000 nM)”. The concentration at half-maximal activity (AC50) in the series with HTT mRNA (RT-qPCR) lay in the range of 100 to 1000 nM. The IC50 – broadly, the concentration at which inhibition is half-maximal – in the series on HTT mRNA (setting [1]) is 100 to 1000 nM; in the series with HTT mRNA (setting [2]) it was 100 to 1000 nM; in the series on Target C, 100 to 1000 nM; in the series on SMN2 mRNA, less than 100 nM; with HTT it was 100 to 1000 nM.

`Cc1nc2cc(O)c(-c3ccc4nc(N5CC[C@H](N[C@H]6C[C@@H](F)C6)C5)ccc4n3)cc2o1` (stereo in doubt) [Compound 396]: in the series with K562 cells, the “Effect of Exemplary Compounds” value was “B (B represents 100-1000 nM)”. Also, in the series with HTT mRNA (RT-qPCR), the AC50 was less than 100 nM. Further, the IC50 with HTT mRNA (setting [1]), in the series on HTT mRNA (setting [2]), in the series with Target C, in the series with SMN2 mRNA and in the series on HTT was less than 100 nM each time.

As to `Cn1cc2cc(-c3ccc4nc(N5CC[C@@H](NC6(CF)CC6)C5)ccc4n3)c(O)cc2n1` [Compound 354, 5-{6-[(3R)-3-{[1-(fluoromethyl)cyclopropyl]amino}pyrrolidin-1-yl]-1,5-naphthyridin-2-yl}-2-methylindazol-6-ol], in the series on K562 cells, the “Effect of Exemplary Compounds” value was “B (B represents 100-1000 nM)”. Further, the AC50 in the series on HTT mRNA (RT-qPCR) was less than 100 nM. Moreover, the IC50 with HTT mRNA (setting [1]), in the series with HTT mRNA (setting [2]), in the series with Target C, with SMN2 mRNA and in the series with HTT was less than 100 nM in each case.

For `Cn1cc2cc(-c3ccc4nc(N5CC[C@H](NC6(CF)CC6)C5)ccc4n3)c(O)cc2n1` [Compound 355, 5-{6-[(3S)-3-{[1-(fluoromethyl)cyclopropyl]amino}pyrrolidin-1-yl]-1,5-naphthyridin-2-yl}-2-methylindazol-6-ol], the “Effect of Exemplary Compounds” value in the series with K562 cells is recorded as “B (B represents 100-1000 nM)”. Further, the AC50 with HTT mRNA (RT-qPCR) was less than 100 nM. For the same molecule, the IC50 with HTT mRNA (setting [1]), in the series on HTT mRNA (setting [2]), in the series with Target C, in the series on SMN2 mRNA and in the series with HTT was less than 100 nM in each case.

Regarding `Cc1c(O)c(-c2ccc3nc(N4CCC(NC5(CF)CC5)C4)ccc3n2)cc2cn(C)nc12` (centres unmarked) [Compound 360, 5-[6-(3-{[1-(fluoromethyl)cyclopropyl]amino}pyrrolidin-1-yl)-1,5-naphthyridin-2-yl]-2,7-dimethylindazol-6-ol], the “Effect of Exemplary Compounds” value in the series with K562 cells is “B (B represents 100-1000 nM)”. In the series on HTT mRNA (RT-qPCR), the concentration at half-maximal activity (AC50) is less than 100 nM. The half-maximal inhibitory concentration (IC50) in the series on HTT mRNA (setting [1]), in the series with HTT mRNA (setting [2]), in the series on Target C, in the series with SMN2 mRNA and in the series with HTT was less than 100 nM each time.

For the molecule `Cc1c(O)c(-c2cc(C(C)O)c3nc(N4CCNCC4)ccc3n2)cc2cn(C)nc12` (centres unmarked) [Compound 364, 5-[4-(1-hydroxyethyl)-6-(piperazin-1-yl)-1,5-naphthyridin-2-yl]-2,7-dimethylindazol-6-ol], in the series on K562 cells, the “Effect of Exemplary Compounds” value is “B (B represents 100-1000 nM)”. Moreover, the concentration at half-maximal activity (AC50) in the series with HTT mRNA (RT-qPCR) was greater than 10000 nM. For the same molecule, the IC50 was greater than 10000 nM with HTT mRNA (setting [1]); greater than 10000 nM in the series on HTT mRNA (setting [2]); 1000 to 10000 nM in the series with Target C; 100 to 1000 nM in the series on SMN2 mRNA; greater than 10000 nM in the series with HTT.

The values above are taken from US20250092065A1, “2-(INDAZOL-5-YL)-6-(PIPERIDIN-4-YL)-1,7-NAPHTHYRIDINE DERIVATIVES AND RELATED COMPOUNDS AS MODULATORS FOR SPLICING NUCLEIC ACIDS AND FOR THE TREATMENT OF PROLIFERATIVE DISEASES” (REMIX THERAPEUTICS INC., priority 2022, published 2025).
